Two compounds from patent US20230279495A1, “MOLECULAR SIGNATURES OF RADIATION SENSITIVITY IN TUMORS, AND METHODS OF USE THEREOF” (MEMORIAL SLOAN KETTERING CANCER CENTER, priority 2019, published 2023) can be followed below.

In assay [1] the test system is DSB repair pathways (NHEJ, MMEJ, HR) at the AAVS1 locus in U2OS cells. The experiment in a line: Cas9 assay (DSBR-Seq): NHEJ, MMEJ and HR quantified by sequencing repair events at a site-directed DSB. The class given is cell-based. As for the experimental part: FIG. 4. A-G. E7 expression shifts DNA double strand break repair pathway choice towards MMEJ. (FIG. 4 A) Schematic of DSBR-Seq Assay. The sequencing reads are classified into NHEJ (<5 bp deletion) in (FIG. 4 B), MMEJ (>5 bp deletion with at least 2 bp MH) in (FIG. 4 C) and HR (substitutions from HR donor) in (FIG. 4 D). The DNApk inhibitor […] was used at 1 μM (micromolar) concentration. (FIG. 4 E) cNHEJ measured as a fraction of mutant reads with deletion sizes less than 5 bp. (FIG. 4 F) E7 expression favors mutant reads with deletion sizes larger than 5 bp representing DSBs repaired by MMEJ. (FIG. 4 G) E7 expression results in lower deletion frequency of small deletions near the double strand break. Results represent the mean of 3 independent experiments+/−the standard error of the mean. * represents a p-vale of <0.05.
To measure DSB repair pathway tradeoffs within an endogenous genomic locus, we used the Cas9 endonuclease to create a site-directed DSB at the AAVS1 locus, chosen because of its characterization as a “safe” genomic locus for integration. Cas9 creates a blunt-ended DSB and repair events at the breaksite can be cataloged in a pool of cells using PCR amplification of a region surrounding the breaksite and massively parallel sequencing to quantify repair outcomes. […] NHEJ is measured with sequencing events with small (1-5) base pair deletions whereas MMEJ is quantified using sequencing events with large deletions and microhomology at the breaksite. All three pathways are thereby quantifiable in a single set of sequencing data in a single pool of cells (FIG. 4 A). […]
To quantify NHEJ, MMEJ and HR at an endogenous breaksite, a Cas9 and gRNA expression plasmid and a donor template oligonucleotide was transfected into U2OS cells with and without E7 expressed. A PCR product surrounding the breaksite was sequenced using Illumina-based NGS technology and the pattern of deletions at the breaksite was analyzed and quantified according to methods described within the Example 2 (SI appendix). […]

Assay [2] addresses Rb (retinoblastoma protein, RB1) (human) (UniProt P06400). The experiment in a line: cell-based or functional assay.
UniProt P06400, sequence (P06400 2-928 limits assumed): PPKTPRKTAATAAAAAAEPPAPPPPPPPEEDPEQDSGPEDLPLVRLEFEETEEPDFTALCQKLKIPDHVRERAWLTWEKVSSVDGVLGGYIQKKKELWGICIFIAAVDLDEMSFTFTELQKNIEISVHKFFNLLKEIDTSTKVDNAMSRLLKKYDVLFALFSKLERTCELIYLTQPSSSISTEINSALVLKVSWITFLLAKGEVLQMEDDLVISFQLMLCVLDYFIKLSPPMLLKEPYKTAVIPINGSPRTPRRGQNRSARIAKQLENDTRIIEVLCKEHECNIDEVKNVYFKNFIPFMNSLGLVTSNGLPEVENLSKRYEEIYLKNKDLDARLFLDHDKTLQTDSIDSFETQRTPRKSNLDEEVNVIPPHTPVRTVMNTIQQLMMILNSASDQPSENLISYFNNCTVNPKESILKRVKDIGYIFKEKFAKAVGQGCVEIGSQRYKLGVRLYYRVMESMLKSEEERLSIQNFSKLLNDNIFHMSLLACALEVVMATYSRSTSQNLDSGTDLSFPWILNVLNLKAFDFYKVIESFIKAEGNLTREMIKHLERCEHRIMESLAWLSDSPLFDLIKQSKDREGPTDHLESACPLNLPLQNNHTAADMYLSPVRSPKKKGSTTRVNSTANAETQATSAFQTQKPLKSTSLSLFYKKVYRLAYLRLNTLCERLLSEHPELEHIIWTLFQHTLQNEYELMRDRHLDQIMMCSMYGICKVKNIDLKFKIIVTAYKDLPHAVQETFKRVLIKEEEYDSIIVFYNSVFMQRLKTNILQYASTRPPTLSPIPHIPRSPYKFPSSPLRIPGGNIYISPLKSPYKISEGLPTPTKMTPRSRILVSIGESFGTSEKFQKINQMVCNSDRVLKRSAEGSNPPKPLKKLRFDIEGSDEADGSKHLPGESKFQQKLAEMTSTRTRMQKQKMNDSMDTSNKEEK

On to `O=c1cc(N2CCOCC2)oc2c(-c3cccc4c3sc3ccccc34)cccc12` [Nu7441], for which the “small deletions (1-5 base pairs), reflective of NHEJ” value in assay [1] (inhibitor at 1 μM (FIG. 4 B)) is “decrease”. In assay [1] (inhibitor at 1 μM (FIG. 4 C)), the “larger deletions (>5 bp) with microhomology (≥2 bp) (MMEJ)” value was “increase”. Also, the “HR (substitutions from HR donor)” value in assay [1] (inhibitor at 1 μM (FIG. 4 D)) is reported as “increase”.

For “HPV16 E7 oncoprotein (from UniProt P03129 1-98)”, in assay [2], the MMEJ activity (percentage of GFP positive cells, U2OS EJ2-GFP reporter, against empty vector) is 42% and the decrease in NHEJ activity (percentage of GFP positive cells, U2OS EJ5-GFP reporter, against empty vector) was found to be 31%.
